In the supplement of paper PMC11061612:

Legend:
Test in all cases: Bliss excess, mean over the matrix (fraction); higher = more synergy
[1] = test system: C-33-A (Cervical Carcinoma)
How it was run: (§1)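 Bliss excess equals the observed combination effect minus the expected value EA + EB − EA·EB, where EA and EB are the effects of each agent alone. Combination Emax is the second-highest inhibition within the matrix. Inhibition was scaled from CellTiter-Glo 2.0 luminescence, with 0 set by vehicle wells and 1 by blank wells, after 72 hours of two-drug dosing of cells plated in 1536-well plates.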

[2] = test system: COR-L88 (Small Cell Lung Carcinoma)
How it was run: as §1

[3] = test system: CPC-N (Small Cell Lung Carcinoma)
How it was run: as §1

GAK (Melanoma) = test system: GAK (Melanoma)
How it was run: as §1

[4] = test system: HPAF-II (Pancreatic Carcinoma)
How it was run: as §1

[5] = test system: IA-LM (Non-Small Cell Lung Carcinoma)
How it was run: as §1

IST-MEL1 (Melanoma) = test system: IST-MEL1 (Melanoma)
How it was run: as §1

[6] = test system: LCLC-103H (Non-Small Cell Lung Carcinoma)
How it was run: as §1

[7] = test system: LS-1034 (Colorectal Carcinoma)
How it was run: as §1

[8] = test system: MDA-MB-415 (Breast Carcinoma)
How it was run: as §1

[9] = test system: MONO-MAC-6 (Acute Myeloid Leukemia)
How it was run: as §1

[10] = test system: MS-1 (Small Cell Lung Carcinoma)
How it was run: as §1

[11] = test system: NAMALWA (Burkitt's Lymphoma)
How it was run: as §1

[12] = test system: NCI-H3118 (Head and Neck Carcinoma)
How it was run: as §1

[13] = test system: SCC-4 (Oral Cavity Carcinoma)
How it was run: as §1

[14] = test system: SK-CO-1 (Colorectal Carcinoma)
How it was run: as §1

[15] = test system: SKG-IIIa (Cervical Carcinoma)
How it was run: as §1

[16] = test system: SNU-423 (Hepatocellular Carcinoma)
How it was run: as §1

[17] = test system: T84 (Colorectal Carcinoma)
How it was run: as §1

[18] = test system: ZR-75-30 (Breast Carcinoma)
How it was run: as §1

Structure (SMILES)	Bliss excess [1]	Bliss excess [2]	Bliss excess [3]	Bliss excess (GAK (Melanoma))	Bliss excess [4]	Bliss excess [5]	Bliss excess (IST-MEL1 (Melanoma))	Bliss excess [6]	Bliss excess [7]	Bliss excess [8]	Bliss excess [9]	Bliss excess [10]	Bliss excess [11]	Bliss excess [12]	Bliss excess [13]	Bliss excess [14]	Bliss excess [15]	Bliss excess [16]	Bliss excess [17]	Bliss excess [18]
O=C(c1cc(Cc2n[nH]c(=O)c3ccccc23)ccc1F)N1CCN(C(=O)C2CC2)CC1 [Olaparib] + COc1nnc2ccc(N3CCC(c4ccc(OCCN5CCN(C)C(=O)[C@H]5C)cc4)CC3)nn12 [AZD5153] (first compound max 10 µM, 7x7, partner max 1 µM)	-0.0461	-0.0582	-0.0557	-0.0642	0.0018	-0.153	-0.045	-0.0369	-0.0339	-0.0222	-0.0333	-0.0426	-0.0519	-0.0669	-0.0472	-0.0441	-0.0383	-0.0546	-0.0698	-0.0502
CC1(C)CCC(CN2CCN(c3ccc(C(=O)NS(=O)(=O)c4ccc(NCC5CCOCC5)c([N+](=O)[O-])c4)c(Oc4cnc5[nH]ccc5c4)c3)CC2)=C(c2ccc(Cl)cc2)C1 [Venetoclax] + CS(=O)(=O)CCNCc1ccc(-c2ccc3ncnc(Nc4ccc(OCc5cccc(F)c5)c(Cl)c4)c3c2)o1 [Lapatinib] (first compound max 1 µM, 7x7, partner max 10 µM)	-0.0001	-0.0146	-0.019	0.0293	-0.0355	-0.0665	-0.0234	-0.0319	-0.0412	-0.047	-0.0371	-0.0021	-0.0072	-0.014	-0.0231	0.0109	-0.0674	-0.0254	-0.0151	0.0215
Cc1c2c(nn1C)CSCc1cc(n(C)n1)CSc1cc(c3ccccc3c1)OCCCc1c(C(=O)O)n(C)c3c-2c(Cl)ccc13 [AZD5991] + Nc1ccn([C@@H]2O[C@H](CO)[C@@H](O)C2(F)F)c(=O)n1 [Gemcitabine] (first compound max 1 µM, 7x7, partner max 0.3 µM)	0.0332	0.0854	-0.0387	0.01	-0.0059	-0.0384	-0.0045	-0.0722	-0.0473	-0.0407	-0.0133	-0.0371	-0.0379	-0.0107	-0.0333	-0.0284	-0.0271	-0.0672	-0.0187	0.0283
C[C@@H](Oc1cc(-c2cnn(C3CCNCC3)c2)cnc1N)c1c(Cl)ccc(F)c1Cl [Crizotinib] + Cn1cnc2c(F)c(Nc3ccc(Br)cc3Cl)c(C(=O)NOCCO)cc21 [Selumetinib] (first compound max 10 µM, 7x7, partner max 10 µM)	-0.0274	-0.0464	-0.0663	-0.0473	0.0008	-0.0463	0.0273	-0.0221	-0.0843	-0.0114	0.023	-0.0926	-0.0259	-0.0222	-0.0514	-0.043	-0.0048	-0.0459	-0.0143	-0.0416
N#Cc1cnc(Nc2cc(NC[C@H]3CNCCO3)c(C(F)(F)F)cn2)cn1 [SRA737] + C=CCn1c(=O)c2cnc(Nc3ccc(N4CCN(C)CC4)cc3)nc2n1-c1cccc(C(C)(C)O)n1 [AZD1775] (first compound max 10 µM, partner max 1 µM)	0.0919	0.111	0.0589	0.0525	0.0176	0.0224	0.046	0.0146	0.142	0.0133	0.0824	0.078	0.0724	0.0583	0.0374	0.0306	-0.031	0.0786	0.0022	-0.0093
N#Cc1cnc(Nc2cc(NC[C@H]3CNCCO3)c(C(F)(F)F)cn2)cn1 [SRA737] + O=c1[nH]cc(F)c(=O)[nH]1 [5-Fluorouracil] (first compound max 10 µM, 7x7, partner max 20 µM)	0.0006	-0.0088	-0.036	-0.012	0.036	-0.0622	-0.0223	0.0215	0.0936	0.057	0.0181	-0.0821	0.0157	0.0141	0.0952	0.0188	0.0284	0.0005	0.0458	-0.0283
C[C@@H](Oc1cc(-c2cnn(C3CCNCC3)c2)cnc1N)c1c(Cl)ccc(F)c1Cl [Crizotinib] + CC1=C(C(=CC=C1)Cl)NC(=O)C2=CN=C(S2)NC3=CC(=NC(=N3)C)N4CCN(CC4)CCO [Dasatinib] (first compound max 10 µM, 7x7, partner max 2 µM)	-0.02	-0.0039	-0.0989	-0.0786	0.0578	-0.0154	0.0781	0.01	-0.0512	-0.0332	0.014	-0.118	0.0586	0.0187	0.0487	0.0048	0.0166	-0.0038	0.0051	-0.0431
N#Cc1cnc(Nc2cc(NC[C@H]3CNCCO3)c(C(F)(F)F)cn2)cn1 [SRA737] + CCc1c2c(nc3ccc(O)cc13)-c1cc3c(c(=O)n1C2)COC(=O)[C@]3(O)CC [SN-38] (first compound max 10 µM, 7x7, partner max 0.3 µM)	0.0384	-0.0179	0.0694	–	-0.0004	-0.0646	-0.0613	0.0442	0.083	0.0404	-0.0374	-0.0022	-0.0123	-0.0085	0.007	-0.0667	0.0311	0.0367	-0.0351	-0.0375
C[C@@H](Nc1cc(F)cc(F)c1)c1cc(C(=O)N(C)C)cc2c(=O)cc(N3CCOCC3)oc12 [AZD8186] + CC(=O)c1c(C)c2cnc(Nc3ccc(N4CCNCC4)cn3)nc2n(C2CCCC2)c1=O [Palbociclib] (first compound max 10 µM, 7x7, partner max 10 µM)	-0.0435	0.0025	-0.0198	0.0192	0.0384	0.0122	0.165	-0.0038	0.0015	-0.0443	0.0726	-0.0484	0.0544	0.0284	0.0328	0.0163	-0.0661	0.0188	-0.0468	-0.0465
O=C(c1cc(Cc2n[nH]c(=O)c3ccccc23)ccc1F)N1CCN(C(=O)C2CC2)CC1 [Olaparib] + Cc1c2c(nn1C)CSCc1cc(n(C)n1)CSc1cc(c3ccccc3c1)OCCCc1c(C(=O)O)n(C)c3c-2c(Cl)ccc13 [AZD5991] (first compound max 10 µM, 7x7, partner max 1 µM)	-0.0224	0.0223	-0.0555	-0.0516	-0.0366	-0.063	-0.0488	-0.0206	-0.0414	-0.0838	0.0434	-0.0481	-0.0026	-0.006	-0.0491	-0.0091	-0.0562	-0.0503	-0.0266	-0.0227
C[C@@H]1COCCN1c1cc(C2([S@](C)(=N)=O)CC2)nc(-c2ccnc3[nH]ccc23)n1 [AZD6738] + Nc1ccn([C@@H]2O[C@H](CO)[C@@H](O)C2(F)F)c(=O)n1 [Gemcitabine] (first compound max 10 µM, 7x7, partner max 0.3 µM)	0.032	0.105	0.0021	-0.0055	–	-0.027	0.0314	0.0863	0.0853	0.065	0.0427	0.0014	0.0357	0.0134	0.0044	0.0365	0.0657	0.0969	0.0477	0.0117
C=CCn1c(=O)c2cnc(Nc3ccc(N4CCN(C)CC4)cc3)nc2n1-c1cccc(C(C)(C)O)n1 [AZD1775] + CCc1c2c(nc3ccc(O)cc13)-c1cc3c(c(=O)n1C2)COC(=O)[C@]3(O)CC [SN-38] (first compound max 1 µM, partner max 0.3 µM)	0.0561	-0.0248	0.0523	-0.0432	-0.0218	-0.0699	-0.0827	0.0015	0.0498	-0.009	-0.0158	-0.0292	-0.0172	-0.0284	-0.0732	-0.0355	-0.0319	-0.0644	0.0598	-0.0938
C=CCn1c(=O)c2cnc(Nc3ccc(N4CCN(C)CC4)cc3)nc2n1-c1cccc(C(C)(C)O)n1 [AZD1775] + Nc1ccn([C@@H]2O[C@H](CO)[C@@H](O)C2(F)F)c(=O)n1 [Gemcitabine] (first compound max 1 µM, partner max 0.3 µM)	0.0713	0.0144	–	-0.0443	0.0046	-0.0454	0.0144	0.0858	0.0159	0.0228	0.0322	-0.0721	0.0247	-0.0638	-0.0574	-0.0262	0.0393	-0.0538	0.0564	-0.0561
N#Cc1cnc(Nc2cc(NC[C@H]3CNCCO3)c(C(F)(F)F)cn2)cn1 [SRA737] + Nc1ccn([C@@H]2O[C@H](CO)[C@@H](O)C2(F)F)c(=O)n1 [Gemcitabine] (first compound max 10 µM, 7x7, partner max 0.3 µM)	0.0954	-0.0293	0.035	-0.011	0.0843	-0.0365	-0.0023	0.117	0.145	0.115	0.0489	0.0566	0.0256	0.0007	–	0.0698	0.13	0.0518	0.0819	-0.0408
CN(CCO)CC[C@H](CSc1ccccc1)Nc1ccc(S(=O)(=O)NC(=O)c2ccc(N3CCC([C@@H](O)c4ccccc4-c4ccc(Cl)cc4)CC3)cc2)cc1S(=O)(=O)C(F)(F)F [AZD4320] + Nc1ccn([C@@H]2O[C@H](CO)[C@@H](O)C2(F)F)c(=O)n1 [Gemcitabine] (first compound max 1 µM, 7x7, partner max 0.3 µM)	0.0113	0.0283	0.0415	0.0955	-0.0087	0.0296	0.134	-0.0122	-0.0357	0.0347	-0.0237	-0.0023	–	-0.0638	0.0027	-0.0065	0.0259	0.0088	-0.0434	-0.0052
